From the supplement of paper PMC10307832

Legend:
Experiment in all cases: relative viability (nuclei count vs DMSO), 5 days (fraction); higher = more cells survive
Erlotinib + Pemetrexed = compound: C#Cc1cccc(Nc2ncnc3cc(OCCOC)c(OCCOC)cc23)c1 [Erlotinib] + Nc1nc2[nH]cc(CCc3ccc(C(=O)N[C@@H](CCC(=O)O)C(=O)O)cc3)c2c(=O)[nH]1 [Pemetrexed] (partner 0.2 µM)
Outline: (§1)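 Medians of duplicate plates are given as relative viability. That measure is the nuclei count in treated wells divided by the count in vehicle wells. Counts were taken on 4× images of lung cancer cell lines in 1536-well plates, 5 days after pin-tool dosing the day after seeding with one drug alone or a fixed anchor-drug dose plus five library-drug doses (not always all listed) in √10 steps.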

AT9283 + Pictilisib = compound: O=C(Nc1c[nH]nc1-c1nc2ccc(CN3CCOCC3)cc2[nH]1)NC1CC1 [AT9283] + CS(=O)(=O)N1CCN(Cc2cc3nc(-c4cccc5[nH]ncc45)nc(N4CCOCC4)c3s2)CC1 [Pictilisib] (partner 1 µM)
Outline: as §1

AT9283 + Bortezomib = compound: O=C(Nc1c[nH]nc1-c1nc2ccc(CN3CCOCC3)cc2[nH]1)NC1CC1 [AT9283] + CC(C)C[C@H](NC(=O)[C@H](Cc1ccccc1)NC(=O)c1cnccn1)B(O)O [Bortezomib] (partner 0.002 µM)
Outline: as §1

AT9283 + Decitabine = compound: O=C(Nc1c[nH]nc1-c1nc2ccc(CN3CCOCC3)cc2[nH]1)NC1CC1 [AT9283] + Nc1ncn([C@H]2C[C@H](O)[C@@H](CO)O2)c(=O)n1 [Decitabine] (partner 2 µM)
Outline: as §1

AT9283 + Luminespib = compound: O=C(Nc1c[nH]nc1-c1nc2ccc(CN3CCOCC3)cc2[nH]1)NC1CC1 [AT9283] + CCNC(=O)c1noc(-c2cc(C(C)C)c(O)cc2O)c1-c1ccc(CN2CCOCC2)cc1 [Luminespib] (partner 0.01 µM)
Outline: as §1

| Cell Line | relative viability (Erlotinib + Pemetrexed; first compound 0.02 µM) | relative viability (Erlotinib + Pemetrexed; first compound 0.6325 µM) | relative viability (Erlotinib + Pemetrexed; first compound 2 µM) | relative viability (AT9283 + Pictilisib; first compound 0.003 µM) | relative viability (AT9283 + Pictilisib; first compound 0.03 µM) | relative viability (AT9283 + Pictilisib; first compound 0.09487 µM) | relative viability (AT9283 + Pictilisib; first compound 0.3 µM) | relative viability (AT9283 + Bortezomib; first compound 0.003 µM) | relative viability (AT9283 + Bortezomib; first compound 0.03 µM) | relative viability (AT9283 + Bortezomib; first compound 0.09487 µM) | relative viability (AT9283 + Bortezomib; first compound 0.3 µM) | relative viability (AT9283 + Decitabine; first compound 0.003 µM) | relative viability (AT9283 + Decitabine; first compound 0.03 µM) | relative viability (AT9283 + Decitabine; first compound 0.09487 µM) | relative viability (AT9283 + Decitabine; first compound 0.3 µM) | relative viability (AT9283 + Luminespib; first compound 0.003 µM) | relative viability (AT9283 + Luminespib; first compound 0.03 µM) | relative viability (AT9283 + Luminespib; first compound 0.09487 µM) | relative viability (AT9283 + Luminespib; first compound 0.3 µM) | relative viability (Erlotinib + Pemetrexed; first compound 0.2 µM) |
| --- | --- | --- | --- | --- | --- | --- | --- | --- | --- | --- | --- | --- | --- | --- | --- | --- | --- | --- | --- | --- |
| LXF-289 | 0.908 | 0.819 | 0.783 | 0.727 | 0.668 | 0.0746 | 0.0864 | 0.972 | 0.992 | 0.184 | 0.131 | 0.354 | 0.423 | 0.214 | 0.139 | 0.731 | 0.742 | 0.326 | 0.144 |  |
| COR-L23 | 0.205 | 0.195 | 0.19 | 0.83 | 0.132 | 0.107 | 0.123 | 1.05 | 0.664 | 0.23 | 0.152 | 0.385 | 0.304 | 0.169 | 0.168 | 0.73 | 0.27 | 0.151 | 0.165 | 0.178 |
| NCI-H23 | 0.774 | 0.747 | 0.523 | 0.457 | 0.267 | 0.213 | 0.153 | 0.852 | 1.01 | 0.557 | 0.236 | 0.26 | 0.293 | 0.228 | 0.246 | 0.216 | 0.234 | 0.204 | 0.167 | 0.575 |
| NCI-H1975 | 0.288 | 0.292 | 0.263 | 0.26 | 0.179 | 0.18 | 0.165 | 0.388 | 0.264 | 0.173 | 0.179 | 0.403 | 0.432 | 0.398 | 0.34 | 0.198 | 0.243 | 0.215 | 0.132 | 0.294 |
| NCI-H3122 | 0.215 | 0.179 | 0.168 | 0.602 | 0.41 | 0.271 | 0.217 | 1.04 | 1.02 | 0.548 | 0.37 | 0.472 | 0.397 | 0.296 | 0.136 | 0.122 | 0.0841 | 0.051 | 0.0606 | 0.186 |
| EMC-BAC-2 | 0.466 | 0.432 | 0.421 | 0.537 | 0.375 | 0.228 | 0.235 | 1.04 | 0.792 | 0.216 | 0.204 | 0.992 | 0.496 | 0.338 | 0.321 | 1.21 | 0.358 | 0.318 | 0.289 | 0.425 |
| NCI-H2085 | 0.867 | 0.716 | 0.474 | 0.404 | 0.417 | 0.19 | 0.196 | 1.03 | 0.937 | 0.984 | 0.485 | 0.615 | 0.452 | 0.419 | 0.378 | 0.585 | 0.477 | 0.403 | 0.341 | 0.695 |
| NCI-H1355 | 1.06 | 1.03 |  | 0.435 | 0.345 | 0.168 | 0.159 | 1.15 | 1.13 | 1.23 | 0.287 | 0.341 | 0.357 | 0.322 | 0.195 | 0.6 | 0.702 | 0.375 | 0.239 | 0.995 |
